Assay results taken from ChEMBL document CHEMBL2440108, “Synthesis and enzymatic evaluation of phosphoramidon and its β anomer: Anomerization of α-l-rhamnose triacetate upon phosphitylation” (Bioorg Med Chem, 2013).

How the values were obtained:
Thermolysin [1] = biological target: T1, Thermolysin (Bacillus thermoproteolyticus, UniProt P00800); test: Inhibition of Bacillus thermoproteolyticus thermolysin using […] as substrate at pH 7.5 after 15 mins by Henderson plot analysis
T1 sequence (P00800 whole entry): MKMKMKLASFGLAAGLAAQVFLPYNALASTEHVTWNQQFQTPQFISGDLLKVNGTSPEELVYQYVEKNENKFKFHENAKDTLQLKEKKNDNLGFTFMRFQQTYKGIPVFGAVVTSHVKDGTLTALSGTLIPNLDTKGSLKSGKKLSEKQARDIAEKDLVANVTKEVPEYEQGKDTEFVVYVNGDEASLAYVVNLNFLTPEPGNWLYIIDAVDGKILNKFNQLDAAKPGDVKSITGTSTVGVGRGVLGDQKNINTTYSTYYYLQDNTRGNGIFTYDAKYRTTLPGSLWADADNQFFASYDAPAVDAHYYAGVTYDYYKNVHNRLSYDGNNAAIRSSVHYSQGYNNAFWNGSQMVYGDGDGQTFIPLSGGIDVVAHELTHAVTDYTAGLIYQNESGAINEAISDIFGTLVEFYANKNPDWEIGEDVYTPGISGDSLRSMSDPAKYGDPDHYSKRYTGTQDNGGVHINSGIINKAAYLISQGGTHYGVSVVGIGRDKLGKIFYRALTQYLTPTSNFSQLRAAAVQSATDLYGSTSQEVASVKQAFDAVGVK

Thermolysin [2] = biological target: T1, Thermolysin; test: Inhibition of Bacillus thermoproteolyticus thermolysin
[3] = Inhibition of endothelin-converting enzyme (unknown origin); design: species or system Homo sapiens
Thermolysin [4] = biological target: T1, Thermolysin; test: Binding affinity to Bacillus thermoproteolyticus thermolysin at pH 7.5 after 15 mins by fluorescence spectrophotometry

| Structure (SMILES) | Ki (Thermolysin [1]) | Ki (Thermolysin [2]) | IC50 [3] | Kd (Thermolysin [4]) |
| --- | --- | --- | --- | --- |
| CC(C)C[C@H](NP(=O)(O)O[C@@H]1O[C@@H](C)[C@H](O)[C@@H](O)[C@H]1O)C(=O)N[C@@H](Cc1c[nH]c2ccccc12)C(=O)O | 30 nM | 32 nM | 690 nM |  |
| CC(C)C[C@H](NP(=O)(O)O[C@H]1O[C@@H](C)[C@H](O)[C@@H](O)[C@H]1O)C(=O)N[C@@H](Cc1c[nH]c2ccccc12)C(=O)O | 280 nM |  |  | 210 nM |
